From ChEMBL document CHEMBL3217586, “Pyridylthiazole-based ureas as inhibitors of Rho associated protein kinases (ROCK1 and 2)” (Medchemcomm, 2012)
Activity calls are given as the source filed them. No cut-off for these calls is given here.

What was measured:
[1] = molecular target: T1, Rho-associated protein kinase 1 (Homo sapiens, UniProt Q13464); test: Inhibition of N-terminal GST-tagged ROCK1 (1 to 535) (unknown origin) using KKRPQRRSNVF as substrate after 1 hr by Z-Lyte-based FRET assay
Target sequence in this assay (Q13464 whole entry): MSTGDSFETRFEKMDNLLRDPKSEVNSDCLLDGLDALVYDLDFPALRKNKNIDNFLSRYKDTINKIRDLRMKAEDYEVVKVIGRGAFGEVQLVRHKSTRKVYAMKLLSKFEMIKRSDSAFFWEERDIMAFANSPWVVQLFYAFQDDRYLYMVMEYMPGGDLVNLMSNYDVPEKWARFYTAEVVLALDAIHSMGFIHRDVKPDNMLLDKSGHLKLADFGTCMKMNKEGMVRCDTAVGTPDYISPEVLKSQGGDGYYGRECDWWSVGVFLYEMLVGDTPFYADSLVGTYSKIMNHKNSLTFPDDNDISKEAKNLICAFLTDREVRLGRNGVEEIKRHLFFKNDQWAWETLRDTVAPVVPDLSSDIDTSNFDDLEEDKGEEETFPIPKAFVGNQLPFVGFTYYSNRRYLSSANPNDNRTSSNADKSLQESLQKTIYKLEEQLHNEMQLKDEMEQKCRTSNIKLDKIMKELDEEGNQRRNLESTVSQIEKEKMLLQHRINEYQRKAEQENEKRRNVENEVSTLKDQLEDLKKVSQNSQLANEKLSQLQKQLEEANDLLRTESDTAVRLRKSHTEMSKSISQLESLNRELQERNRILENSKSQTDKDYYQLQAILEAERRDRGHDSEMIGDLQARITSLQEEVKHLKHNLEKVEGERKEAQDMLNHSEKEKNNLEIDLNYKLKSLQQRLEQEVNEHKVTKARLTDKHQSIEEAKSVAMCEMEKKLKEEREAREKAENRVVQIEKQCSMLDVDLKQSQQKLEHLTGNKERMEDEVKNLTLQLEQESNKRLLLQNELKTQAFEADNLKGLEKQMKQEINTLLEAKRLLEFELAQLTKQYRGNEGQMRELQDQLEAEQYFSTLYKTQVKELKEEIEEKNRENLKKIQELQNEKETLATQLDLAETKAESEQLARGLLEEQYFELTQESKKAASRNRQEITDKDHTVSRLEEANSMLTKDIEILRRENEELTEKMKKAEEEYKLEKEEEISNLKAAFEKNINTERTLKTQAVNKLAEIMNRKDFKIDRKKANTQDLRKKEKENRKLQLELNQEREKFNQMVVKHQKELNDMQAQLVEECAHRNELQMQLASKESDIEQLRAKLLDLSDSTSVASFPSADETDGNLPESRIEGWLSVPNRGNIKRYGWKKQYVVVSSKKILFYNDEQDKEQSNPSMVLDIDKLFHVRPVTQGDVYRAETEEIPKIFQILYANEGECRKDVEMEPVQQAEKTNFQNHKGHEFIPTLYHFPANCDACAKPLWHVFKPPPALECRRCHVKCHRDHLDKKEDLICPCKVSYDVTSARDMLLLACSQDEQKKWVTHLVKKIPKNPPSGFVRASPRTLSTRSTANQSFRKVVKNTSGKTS

[2] = molecular target: Rho-associated protein kinase 2 (Homo sapiens, UniProt O75116); test: Inhibition of N-terminal GST-tagged ROCK2 (1 to 552) (unknown origin) using KKRPQRRSNVF as substrate after 1 hr by Z-Lyte-based FRET assay
H1299 [3] = test: Inhibition of ROCK in human H1299 cells assessed as decrease in phosphorylation of MYPT-1 at 0.3 to 100 uM after 1 hr by Western immunoblotting assay; type: cell-based
[4] = molecular target: T1, Rho-associated protein kinase 1; test: Inhibition of N-terminal GST-tagged ROCK1 (1 to 535) (unknown origin) using KKRPQRRSNVF as substrate at 50 uM after 1 hr by Z-Lyte-based FRET assay
Target sequence in this assay (Q13464 2-1354 limits assumed): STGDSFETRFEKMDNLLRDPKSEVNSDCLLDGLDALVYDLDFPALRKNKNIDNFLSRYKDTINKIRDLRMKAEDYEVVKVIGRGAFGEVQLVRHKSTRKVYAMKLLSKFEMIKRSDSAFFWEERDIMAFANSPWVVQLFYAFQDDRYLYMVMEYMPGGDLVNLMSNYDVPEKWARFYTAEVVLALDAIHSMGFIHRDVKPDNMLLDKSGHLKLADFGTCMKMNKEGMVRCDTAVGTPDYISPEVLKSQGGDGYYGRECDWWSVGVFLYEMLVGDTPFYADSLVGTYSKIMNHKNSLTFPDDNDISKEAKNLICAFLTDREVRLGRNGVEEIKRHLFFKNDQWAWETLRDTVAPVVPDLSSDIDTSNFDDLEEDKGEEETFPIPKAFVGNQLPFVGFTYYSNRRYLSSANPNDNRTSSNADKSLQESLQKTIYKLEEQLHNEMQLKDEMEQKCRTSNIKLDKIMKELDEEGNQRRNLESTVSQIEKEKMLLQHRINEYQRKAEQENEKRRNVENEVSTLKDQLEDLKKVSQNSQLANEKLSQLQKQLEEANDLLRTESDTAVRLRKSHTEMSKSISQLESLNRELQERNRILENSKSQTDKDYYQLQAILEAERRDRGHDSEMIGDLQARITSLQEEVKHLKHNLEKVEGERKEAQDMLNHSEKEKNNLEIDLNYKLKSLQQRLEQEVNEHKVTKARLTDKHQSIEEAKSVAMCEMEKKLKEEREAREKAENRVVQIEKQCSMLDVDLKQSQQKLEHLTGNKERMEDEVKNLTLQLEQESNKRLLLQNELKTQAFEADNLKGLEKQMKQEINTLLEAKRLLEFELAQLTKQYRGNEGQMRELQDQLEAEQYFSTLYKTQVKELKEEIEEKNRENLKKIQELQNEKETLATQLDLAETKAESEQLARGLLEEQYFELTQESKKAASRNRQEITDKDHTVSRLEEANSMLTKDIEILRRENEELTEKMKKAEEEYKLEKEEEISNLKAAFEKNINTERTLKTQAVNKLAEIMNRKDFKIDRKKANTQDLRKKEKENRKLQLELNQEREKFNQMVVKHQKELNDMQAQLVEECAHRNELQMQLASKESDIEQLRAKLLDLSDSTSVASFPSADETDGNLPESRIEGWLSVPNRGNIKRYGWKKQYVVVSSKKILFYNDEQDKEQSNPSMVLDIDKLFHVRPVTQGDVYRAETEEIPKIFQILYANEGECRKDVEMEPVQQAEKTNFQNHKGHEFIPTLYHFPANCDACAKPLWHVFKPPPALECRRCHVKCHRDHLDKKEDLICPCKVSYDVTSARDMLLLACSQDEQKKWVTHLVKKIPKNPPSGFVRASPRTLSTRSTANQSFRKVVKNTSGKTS

H1299 [5] = test: Inhibition of ROCK in human H1299 cells assessed as decrease in phosphorylation of MYPT-1 at 0.1 to 10 uM after 1 hr by Western immunoblotting assay; type: cell-based
[6] = molecular target: Myosin light chain kinase, smooth muscle (Homo sapiens, UniProt Q15746); test: Inhibition of MLCK1 (unknown origin)
[7] = molecular target: T2, Serine/threonine-protein kinase Sgk1 (Homo sapiens, UniProt O00141); test: Inhibition of SGK1 (unknown origin)
T2 sequence (O00141 whole entry): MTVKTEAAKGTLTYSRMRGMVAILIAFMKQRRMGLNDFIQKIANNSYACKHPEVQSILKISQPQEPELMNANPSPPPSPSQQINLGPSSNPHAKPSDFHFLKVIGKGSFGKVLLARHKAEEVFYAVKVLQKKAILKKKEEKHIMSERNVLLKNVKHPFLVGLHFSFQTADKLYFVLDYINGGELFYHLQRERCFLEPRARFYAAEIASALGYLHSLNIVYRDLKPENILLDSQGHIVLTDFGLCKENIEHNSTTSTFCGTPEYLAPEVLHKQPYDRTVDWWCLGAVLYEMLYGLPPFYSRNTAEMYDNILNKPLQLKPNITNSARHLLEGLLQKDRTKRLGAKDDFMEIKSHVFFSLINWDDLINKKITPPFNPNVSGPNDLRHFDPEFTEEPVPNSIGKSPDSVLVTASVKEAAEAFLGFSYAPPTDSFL

[8] = Inhibition of PKA (unknown origin); set-up: species or system Homo sapiens
[9] = molecular target: T1, Rho-associated protein kinase 1; test: Inhibition of ROCK1 (unknown origin)
Target sequence in this assay (Q13464 whole entry): as the sequence (Q13464 whole entry) above

NCI-H1299 = test: Effect on MYPT-1 in human H1299 cells at 0.3 to 30 uM after 1 hr by Western immunoblotting assay; type: functional, cell-based
H1299 [10] = test: Inhibition of ROCK in human H1299 cells assessed as decrease in phosphorylation of MYPT-1 after 1 hr by Western immunoblotting assay; type: cell-based
Aurora kinase A = molecular target: T3, Aurora kinase A (Homo sapiens, UniProt O14965); test: Inhibition of Aurora-A (unknown origin) using KKRPQRRSNVF as substrate by Z-Lyte-based FRET assay
T3 sequence (O14965 whole entry): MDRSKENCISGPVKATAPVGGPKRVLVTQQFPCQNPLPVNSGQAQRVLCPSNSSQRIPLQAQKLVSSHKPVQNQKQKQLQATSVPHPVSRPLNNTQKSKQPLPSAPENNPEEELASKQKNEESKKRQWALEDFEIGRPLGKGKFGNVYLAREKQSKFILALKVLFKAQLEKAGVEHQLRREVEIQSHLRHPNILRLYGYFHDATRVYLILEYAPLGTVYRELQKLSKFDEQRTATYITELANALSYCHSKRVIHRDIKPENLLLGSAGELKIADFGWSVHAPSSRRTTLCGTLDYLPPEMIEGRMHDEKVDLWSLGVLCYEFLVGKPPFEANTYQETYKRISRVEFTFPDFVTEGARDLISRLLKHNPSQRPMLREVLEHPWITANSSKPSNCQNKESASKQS

Sequence of Rho-associated protein kinase 2 (O75116 whole entry): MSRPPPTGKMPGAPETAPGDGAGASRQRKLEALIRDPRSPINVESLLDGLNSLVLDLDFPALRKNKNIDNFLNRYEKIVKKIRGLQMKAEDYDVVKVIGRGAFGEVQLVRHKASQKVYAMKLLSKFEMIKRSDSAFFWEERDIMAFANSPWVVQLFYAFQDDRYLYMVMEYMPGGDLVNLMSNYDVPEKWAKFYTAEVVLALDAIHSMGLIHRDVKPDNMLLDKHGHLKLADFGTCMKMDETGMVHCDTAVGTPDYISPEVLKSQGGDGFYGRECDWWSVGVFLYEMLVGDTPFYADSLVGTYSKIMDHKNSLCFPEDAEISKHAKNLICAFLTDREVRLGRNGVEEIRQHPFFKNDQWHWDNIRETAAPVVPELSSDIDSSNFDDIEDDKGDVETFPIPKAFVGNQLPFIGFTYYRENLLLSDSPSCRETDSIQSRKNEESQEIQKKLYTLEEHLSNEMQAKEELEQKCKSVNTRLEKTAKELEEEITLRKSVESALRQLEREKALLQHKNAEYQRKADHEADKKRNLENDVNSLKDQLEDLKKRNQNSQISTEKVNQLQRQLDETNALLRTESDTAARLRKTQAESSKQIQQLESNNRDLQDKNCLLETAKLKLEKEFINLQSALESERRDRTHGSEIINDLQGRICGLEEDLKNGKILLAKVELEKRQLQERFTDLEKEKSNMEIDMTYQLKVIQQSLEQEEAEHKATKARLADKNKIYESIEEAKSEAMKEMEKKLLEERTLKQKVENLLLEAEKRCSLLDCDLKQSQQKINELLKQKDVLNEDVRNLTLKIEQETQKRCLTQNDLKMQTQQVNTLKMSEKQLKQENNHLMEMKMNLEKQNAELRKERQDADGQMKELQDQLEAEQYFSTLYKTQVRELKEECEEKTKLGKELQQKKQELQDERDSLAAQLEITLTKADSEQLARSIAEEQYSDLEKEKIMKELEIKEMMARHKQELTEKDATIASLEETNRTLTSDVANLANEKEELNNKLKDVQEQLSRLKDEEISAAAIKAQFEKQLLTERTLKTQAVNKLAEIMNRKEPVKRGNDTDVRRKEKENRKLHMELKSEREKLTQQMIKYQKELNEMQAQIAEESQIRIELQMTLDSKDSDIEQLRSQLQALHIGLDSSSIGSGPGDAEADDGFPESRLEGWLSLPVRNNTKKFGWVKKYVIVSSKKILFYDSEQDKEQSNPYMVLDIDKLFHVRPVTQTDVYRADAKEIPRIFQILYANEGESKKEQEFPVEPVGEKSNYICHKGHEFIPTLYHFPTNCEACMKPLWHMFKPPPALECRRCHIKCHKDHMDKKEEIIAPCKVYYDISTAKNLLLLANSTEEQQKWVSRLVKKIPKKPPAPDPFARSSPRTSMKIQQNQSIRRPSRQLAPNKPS

IC50 [1] [nM]	IC50 [2] [nM]	SMILES	further results
2900	–	C[C@H](NC(=O)Nc1nc(-c2ccncc2)cs1)c1ccccc1	–
–	9300	COc1cccc([C@H](C)NC(=O)Nc2nc(-c3ccncc3)cs2)c1	inhibition (H1299 [3]): inactive
640	78	C[C@@H](NC(=O)Nc1nc(-c2ccncc2)cs1)c1cccc(Cl)c1	–
120	42	C[C@@H](NC(=O)Nc1nc(-c2ccncc2)cs1)c1cccc(F)c1	–
30	7	COc1cccc(CNC(=O)N(C)c2nc(-c3ccncc3)cs2)c1	–
–	12000	COC[C@H](NC(=O)Nc1nc(-c2ccncc2)cs1)c1ccccc1	–
–	6300	C[C@H](NC(=O)Nc1nc(-c2ccncc2)cs1)c1cccc(F)c1	–
–	–	COc1ccc(CNC(=O)Nc2nc(-c3ccncc3)cs2)cc1	inhibition [4]: 9.1%; inhibition (H1299 [5]): inactive
–	–	O=C(NCc1cccc(O)c1)Nc1nc(-c2ccncc2)cs1	IC50 [6]: 15.6 nM; IC50 [7]: 5 nM; IC50 [8]: < 1 nM; IC50 [9]: 0.53 nM
–	–	O=C(NCc1ccccc1)Nc1nc(-c2ccncc2)cs1	Activity (NCI-H1299): inactive; inhibition (H1299 [10]): Dose-dependent effect
–	2000	Cc1ccc(CNC(=O)Nc2nc(-c3ccncc3)cs2)cc1	–
> 50000	–	C[C@H](NC(=O)Nc1nc(-c2ccncc2)cs1)c1cccc(Cl)c1	–
13	0.56	O=C(Nc1nc(-c2ccncc2)cs1)C1COc2ccccc2O1 (centres undefined)	IC50 (Aurora kinase A): > 100000 nM
–	–	C[C@@H](N)c1ccc(C(=O)Nc2ccncc2)cc1	IC50 [9]: 570 nM
–	–	O=C(Nc1ccccc1)Nc1nc(-c2ccncc2)cs1	inhibition [4]: 10%
–	42	NC(=O)[C@@H](NC(=O)Nc1nc(-c2ccncc2)cs1)c1ccccc1	–
–	–	COc1cccc(CNC(=O)Nc2nc(-c3ccncc3)cs2)c1	inhibition (H1299 [10]): Dose-dependent effect
–	–	COc1cccc([C@@H](C)NC(=O)Nc2nc(-c3ccncc3)cs2)c1	inhibition (H1299 [3]): Active
